Test results as given in US4101536A, “Muramyldipeptide derivatives and process for the preparation thereof” (Daiichi Seiyaku Co., Ltd., priority 1976, dated 1978).
Values joined by “and” are separate entries in the source; they are usually repeats but may differ in a detail not shown here. Identical values can stand only once.

Tests used:
[1] = system: mastocytoma P815-X2 cells; assay: Adjuvant activity on the induction of cell-mediated cytotoxic cells in the spleen of allogenic mice (Brunner's method); format: in vivo, C57BL/6J mice; conditions: phosphate buffered saline suspension, eleven days after
Experimental: Adjuvant activity on the induction of cell-mediated cytotoxic cells in the spleen of allogenic mice (C57BL/6J).
Three or four mice of C57BL/6J in each group were immunized intraperitoneally with a mixture of mastocytoma P815-X2 cells (1 × 10^4) and a test material dissolved or suspended in phosphate buffered saline. Control group was immunized with mastocytoma P815-X2 cells alone.
Eleven days after, cell-mediated cytotoxicity was determined by Brunner's method (Immunology 18, 501-515 1970).

MH134 hepatoma [2] = assay: Antitumor activity on the suppression of MH-134 hepatoma; format: in vivo, C3H/He mice; conditions: intradermal, A = mice with tumor growth completely suppressed, B = tested mice
Experimental: Antitumor activity on the suppression of MH-134 hepatoma in C3H/He mice
The antitumor activity of the compounds of this invention was examined by using MH134 hepatoma in syngeneic C3H/He mice. A mixture of tumor cells of MH134 (1 × 10^5) and materials (100 or 20 μg) dissolved or suspended in phosphate buffered saline and transplanted intradermally into C3H/He mice and the tumor growth was measured in inoculated sites.

Hartley guinea pigs = assay: Adjuvant activity on the induction of delayed-type hypersensitivity to ABA-Tyr (skin test); format: in vivo, guinea pig; conditions: with 50 μg ABA-Tyr in Freund's incomplete adjuvant, four footpads, skin test two weeks later, mm ± SE
Experimental: Adjuvant activity of the object compound on the induction of delayed-type hypersensitivity to ABA-Tyr.
Hartley guinea pigs were immunized into four footpads with 50 μg of N-acetyl-L-tyrosine-3-azobenzene-4'-arsonic acid (ABA-Tyr) in Freund's incomplete adjuvant with a test material dissolved or suspended in phosphate buffered saline. Control groups were immunized with ABA-Tyr alone in Freund's incomplete adjuvant.
Two weeks later, skin test with 100 μg of ABA-bacterial α-amylose (ABA-BαA) dissolved in saline was made and skin reaction was measured 24 hours after intradermal injection of test antigen.

ovalmin protein antigen = conditions: increased serum antibody levels and induction of delayed-type hypersensitivity; prior-art statement; cited from earlier work
MH134 hepatoma [3] = conditions: MH134 hepatoma in C3H/He; prior-art statement; cited from earlier work
melanoma B16 = melanoma B16 in C57BL/6J; prior-art statement; cited from earlier work
[4] = system: mastocytoma P815-X2 cells; conditions: immunization with allogeneic antigen, mastocytoma P815-X2 cell in vivo; prior-art statement; cited from earlier work
[5] = dose 10 μg/mice i.p. with P815-X2 cells (1 × 10^4)
[6] = dose 100 μg/mice i.p. with P815-X2 cells (1 × 10^4)
[7] = dose 20 μg mixed with MH134 cells (1 × 10^5)
[8] = dose 100 μg mixed with MH134 cells (1 × 10^5)

| Compound | Specific Target Cell Lysis [1, 5] [%] | Specific Target Cell Lysis [1, 6] [%] | Antitumor Activity A/B Tumor Growth (MH134 hepatoma [2]; [7]) | Skin reaction with 100μg of ABA-BαA at 24 hrs. (Hartley guinea pigs; dose 40 μg) [mm] | Skin reaction with 100μg of ABA-BαA at 24 hrs. (Hartley guinea pigs; dose 400 μg) [mm] | Antitumor Activity A/B Tumor Growth (MH134 hepatoma [2]; [8]) | Skin reaction with 100μg of ABA-BαA at 24 hrs. (Hartley guinea pigs; dose 50 μg) | Skin reaction with 100μg of ABA-BαA at 24 hrs. (Hartley guinea pigs; dose 500 μg) | Skin reaction with 100μg of ABA-BαA at 24 hrs. (Hartley guinea pigs; dose 30 μg) [mm] | Skin reaction with 100μg of ABA-BαA at 24 hrs. (Hartley guinea pigs; dose 300 μg) [mm] | immunoadjuvant activity (ovalmin protein antigen) | antitumor activity on syngeneic mouse tumor system (MH134 hepatoma [3]) | antitumor activity on syngeneic mouse tumor system (melanoma B16) | adjuvant activity in the generation of cell-mediated cytotoxic effector cells on the spleen [4] | Skin reaction with 100μg of ABA-BαA at 24 hrs. (Hartley guinea pigs; dose 100 μg) [mm] |
| --- | --- | --- | --- | --- | --- | --- | --- | --- | --- | --- | --- | --- | --- | --- | --- |
| 6-O-nocardomycoloyl-N-acetylmuramyl-L-alanyl-D-isoglutamine [Nocardo-L-Ala-D-isoGln] | 21.0 ± 7.6 | 76.9 ± 3.2 | 5/10 | 24.5 ± 0.7 | 23.0 ± 1.5 |  |  |  |  |  |  |  |  |  |  |
| 6-O-mycomycoloyl-N-acetylmuramyl-L-ser-D-isoglutamine [Myco-L-Ser-D-isoGln] | 21.8 ± 15.2 | 30.4 ± 14.0 |  |  |  | 10/10 | 18.0 ± 0.6 mm | 15.0 ± 0.5 mm |  |  |  |  |  |  |  |
| 6-O-corynomycoloyl-N-acetylmuramyl-L-alanyl-D-isoglutamine [Coryno-L-Ala-D-isoGln] | 16.1 ± 5.0 | 28.8 ± 14.4 | 6/10 |  |  |  |  |  | 21.2 ± 1.9 | 22.0 ± 0.6 |  |  |  |  |  |
| 6-O-mycomycoloyl-N-acetylmuramyl-L-alanyl-D-isoglutamine [Myco-L-Ala-D-isoGln] | 3.9 | 69.7 |  |  |  | 10/10 | 22.8 ± 0.6 mm and 12.8 ± 1.6 mm | 20.9 ± 0.8 mm and 17.1 ± 0.5 mm |  |  |  |  |  |  |  |
| 6-O-mycomycoloyl-N-acetylmuramyl-glycyl-D-isoglutamine [Myco-Gly-D-isoGln] | 39.3 ± 3.2 | 77.0 ± 4.0 |  |  |  | 7/10 | 2.7 ± 0.7 mm | 15.3 ± 0.6 mm |  |  |  |  |  |  |  |
| CCCCCCCCCCCCCCCCCC(=O)OCC1OC(O)C(NC(C)=O)C(OC(C)C(=O)NC(C)C(=O)NC(CCC(=O)O)C(N)=O)C1O (stereo not drawn) [Stearoyl-muramyldipeptide, 6-O-stearoyl-muramyldipeptide, reference compound] |  | 4.2 | 0/10 |  |  | 0/10 |  |  |  |  | immunological properties almost similar to those of muramyldipeptide | no antitumor activity | no antitumor activity | no adjuvant activity | 17.2 ± 1.2 |
